Source: PubChem BioAssay AID330 (DTP/NCI, 2004)
Several values for one entry are separate records, joined by “and”; a condition that tells them apart may be missing. Equal entries are not always repeated. Inconclusive results and toxic doses are left out.

System: P388 leukemia ip, CD2F1 mice, survival T/C
Assay: NCI In Vivo Anticancer Drug Screen. Data for tumor model P388 Leukemia (intraperitoneal) in CD2F1 (CDF1) mice
Details: endpoint: median survival time, higher = longer survival
How it was run: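 Mice carrying the transplanted tumor received test compound or vehicle. Survival was recorded in each group, and the value is the treated-group measurement divided by that of the vehicle-treated control group.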

[1] = dose: 60.0 mg/kg/injection, schedule: Q01DX005 (ip), vehicle: saline with Tween-80
[2] = dose: 120.0 mg/kg/injection, schedule: Q01DX005 (ip), vehicle: saline with Tween-80
[3] = dose: 240.0 mg/kg/injection, schedule: Q01DX005 (ip), vehicle: saline with Tween-80
[4] = dose: 100.0 mg/kg/injection, schedule: Q04DX003 (ip), vehicle: Klucel (hydroxypropylcellulose) (HPC)
[5] = dose: 200.0 mg/kg/injection, schedule: Q04DX003 (ip), vehicle: Klucel (hydroxypropylcellulose) (HPC)
[6] = dose: 400.0 mg/kg/injection, schedule: Q04DX003 (ip), vehicle: Klucel (hydroxypropylcellulose) (HPC)
[7] = dose: 50.0 mg/kg/injection, schedule: Q01DX005 (ip), vehicle: saline with Tween-80
[8] = dose: 100.0 mg/kg/injection, schedule: Q01DX005 (ip), vehicle: saline with Tween-80
[9] = dose: 200.0 mg/kg/injection, schedule: Q01DX005 (ip), vehicle: saline with Tween-80
[10] = dose: 50.0 mg/kg/injection, schedule: Q01DX009 (ip), vehicle: saline with Tween-80
[11] = dose: 100.0 mg/kg/injection, schedule: Q01DX009 (ip), vehicle: saline with Tween-80

For `Cc1ccc(C2CNC(=S)S2)cc1` (stereo unspecified), the T/C (dose: 50.0 mg/kg/injection, schedule: Q01DX009 (ip), vehicle: DMSO) was 92 % of control, the T/C (dose: 100.0 mg/kg/injection, schedule: Q01DX009 (ip), vehicle: DMSO) was 98 % of control and the T/C (dose: 200.0 mg/kg/injection, schedule: Q01DX009 (ip), vehicle: DMSO) was 98 % of control.
For `COc1cccc2c1C(=O)c1c(O)c3c(c(O)c1C2=O)C[C@@](O)(C(C)O)C[C@@H]3OC1CC(N(C)C)C(O)C(C)O1` (stereo partly specified), the T/C (dose: 0.78 mg/kg/injection, schedule: Q01DX009 (ip), vehicle: water) was 152 % of control, the T/C (dose: 1.56 mg/kg/injection, schedule: Q01DX009 (ip), vehicle: water) was 159 % of control and 161 % of control and the T/C (dose: 2.35 mg/kg/injection, schedule: Q04DX003 (ip), vehicle: water) was 107 % of control. For the same compound, the T/C (dose: 3.13 mg/kg/injection, schedule: Q01DX009 (ip), vehicle: water) was 165 % of control and 172 % of control, the T/C (dose: 6.25 mg/kg/injection, schedule: Q01DX009 (ip), vehicle: water) was 198 % of control and 209 % of control and the T/C (dose: 9.4 mg/kg/injection, schedule: Q04DX003 (ip), vehicle: water) was 111 % of control. For the same compound, the T/C (dose: 75.0 mg/kg/injection, schedule: Q04DX003 (ip), vehicle: water) was 108 % of control.
With `COC(=O)C(=O)C(C)C(=O)C(C)c1nc(NC(=O)Nc2ccc(Cl)cc2)n[nH]1` (stereo unspecified) the T/C [1] was 101 % of control, the T/C [2] was 101 % of control and the T/C [3] was 100 % of control.
For `COc1ccc(CN2CCc3c(cccc3[N+](=O)[O-])C2)cc1`, the T/C [4] was 98 % of control, the T/C [5] was 103 % of control and the T/C [6] was 96 % of control.
In the case of `CCC1(O)CC(c2ccccc2)N(C)C(c2ccccc2)C1` (stereo unspecified), the T/C [7] was 99 % of control and the T/C [8] was 95 % of control.
`COc1cccc(-n2c(=S)[nH]c3ccccc3c2=O)c1` was tested, and the T/C [7] was 93 % of control, the T/C [8] was 87 % of control and the T/C [9] was 89 % of control.
For `CN1CCN(C#CC(=O)c2ccc(Cl)cc2)CC1`, the T/C (dose: 7.5 mg/kg/injection, schedule: Q01DX005 (ip), vehicle: saline with Tween-80) was 114 % of control and the T/C (dose: 15.0 mg/kg/injection, schedule: Q01DX005 (ip), vehicle: saline with Tween-80) was 117 % of control.
For `O=S(=O)(CCCl)c1ccccc1`, the T/C [4] was 104 % of control, the T/C [5] was 106 % of control and the T/C [6] was 97 % of control.
For `COC(=O)c1nnc(C(=O)OC)c2c1c1ccccc1n2C(C)=O`, the T/C (dose: 100.0 mg/kg/injection, schedule: Q04DX002 (ip), vehicle: saline with Tween-80) was 99 % of control, the T/C (dose: 200.0 mg/kg/injection, schedule: Q04DX002 (ip), vehicle: saline with Tween-80) was 99 % of control and the T/C (dose: 400.0 mg/kg/injection, schedule: Q04DX002 (ip), vehicle: saline with Tween-80) was 99 % of control.
For `O=C(O)c1cccc(C(=O)O)c1S(=O)c1ccccc1` (stereo unspecified), the T/C (dose: 100.0 mg/kg/injection, schedule: Q04DX002 (ip), vehicle: other) was 102 % of control, the T/C (dose: 200.0 mg/kg/injection, schedule: Q04DX002 (ip), vehicle: other) was 103 % of control and the T/C (dose: 400.0 mg/kg/injection, schedule: Q04DX002 (ip), vehicle: other) was 94 % of control.
With `CN(C)CCOc1ccccc1Cc1ccccc1` the T/C [10] was 95 % of control, the T/C [11] was 100 % of control and the T/C (dose: 200.0 mg/kg/injection, schedule: Q01DX009 (ip), vehicle: saline with Tween-80) was 118 % of control.
In the case of `CN1C(=O)N(C)C2(C(=O)c3cccc4cccc2c34)C1=O` (stereo unspecified), the T/C (dose: 50.0 mg/kg/injection, schedule: Q01DX009 (ip), vehicle: distilled water + alcohol) was 100 % of control, the T/C (dose: 100.0 mg/kg/injection, schedule: Q01DX009 (ip), vehicle: distilled water + alcohol) was 94 % of control and the T/C (dose: 200.0 mg/kg/injection, schedule: Q01DX009 (ip), vehicle: distilled water + alcohol) was 100 % of control.
`O=C(O)CCc1c(-c2ccccc2)c(-c2ccccc2)c2n1CCC2` was tested, and the T/C (dose: 100.0 mg/kg/injection, schedule: Q01DX001 (ip), vehicle: saline with Tween-80) was 98 % of control, the T/C (dose: 200.0 mg/kg/injection, schedule: Q01DX001 (ip), vehicle: saline with Tween-80) was 100 % of control and the T/C (dose: 400.0 mg/kg/injection, schedule: Q01DX001 (ip), vehicle: saline with Tween-80) was 97 % of control.
`O=C(N/N=C\c1ccccc1O)c1cccc2ccccc12` was tested, and the T/C (dose: 50.0 mg/kg/injection, schedule: Q01DX005 (ip), vehicle: Klucel (hydroxypropylcellulose) (HPC)) was 99 % of control, the T/C (dose: 100.0 mg/kg/injection, schedule: Q01DX005 (ip), vehicle: Klucel (hydroxypropylcellulose) (HPC)) was 99 % of control and the T/C (dose: 200.0 mg/kg/injection, schedule: Q01DX005 (ip), vehicle: Klucel (hydroxypropylcellulose) (HPC)) was 102 % of control.
In the case of `Nc1ccc(S(=O)(=O)n2c(=O)oc3ccc(Cl)cc32)cc1`, the T/C (dose: 50.0 mg/kg/injection, schedule: Q04DX002 (ip), vehicle: Klucel (hydroxypropylcellulose) (HPC)) was 97 % of control, the T/C (dose: 100.0 mg/kg/injection, schedule: Q04DX002 (ip), vehicle: Klucel (hydroxypropylcellulose) (HPC)) was 97 % of control and the T/C (dose: 200.0 mg/kg/injection, schedule: Q04DX002 (ip), vehicle: Klucel (hydroxypropylcellulose) (HPC)) was 90 % of control.
With `NNc1ncnc2c1ncn2C1OC(CO)C(O)C1O` (stereo unspecified) the T/C (dose: 19.8 mg/kg/injection, schedule: Q01DX009 (ip), vehicle: saline) was 120 % of control, the T/C (dose: 30.0 mg/kg/injection, schedule: Q01DX009 (ip), vehicle: saline) was 150 % of control and the T/C (dose: 45.0 mg/kg/injection, schedule: Q01DX009 (ip), vehicle: saline) was 160 % of control. For the same compound, the T/C [10] was 120 % of control, the T/C (dose: 66.0 mg/kg/injection, schedule: Q01DX009 (ip), vehicle: saline with Tween-80) was 112 % of control and the T/C [11] was 163 % of control. The T/C (dose: 100.0 mg/kg/injection, schedule: Q04DX003 (ip), vehicle: saline) was 118 % of control and the T/C (dose: 200.0 mg/kg/injection, schedule: Q04DX003 (ip), vehicle: saline) was 86 % of control.
In the case of `O=c1n(-c2ccccc2)c(=O)n2n1C1C3C4C3C2C2(F)C4C12` (stereo unspecified), the T/C (dose: 3.0 mg/kg/injection, schedule: Q04DX002 (ip), vehicle: Klucel (hydroxypropylcellulose) (HPC)) was 95 % of control, the T/C (dose: 6.0 mg/kg/injection, schedule: Q04DX002 (ip), vehicle: Klucel (hydroxypropylcellulose) (HPC)) was 101 % of control and the T/C (dose: 12.5 mg/kg/injection, schedule: Q04DX002 (ip), vehicle: Klucel (hydroxypropylcellulose) (HPC)) was 108 % of control.
In the case of `C=C1CC(OC(C)=O)/C=C(/C)CCC(C(C)(C)O)CC1O` (stereo unspecified), the T/C (dose: 14.5 mg/kg/injection, schedule: Q01DX005 (ip), vehicle: Klucel + Tween-80) was 96 % of control, the T/C (dose: 29.0 mg/kg/injection, schedule: Q01DX005 (ip), vehicle: Klucel + Tween-80) was 96 % of control and the T/C (dose: 58.0 mg/kg/injection, schedule: Q01DX005 (ip), vehicle: Klucel + Tween-80) was 97 % of control. The T/C (dose: 116.0 mg/kg/injection, schedule: Q01DX005 (ip), vehicle: Klucel + Tween-80) was 100 % of control.
In the case of `CC1(c2cccc(N(CCCl)CCCl)c2)NC(=O)NC1=O` (stereo unspecified), the T/C (dose: 25.0 mg/kg/injection, schedule: Q01DX009 (ip), vehicle: saline with Tween-80) was 166 % of control, the T/C [10] was 184 % of control and 204 % of control and the T/C [11] was 90 % of control.
For `COc1cccc(C(Nc2nncs2)Nc2nncs2)c1OC`, the T/C [1] was 87 % of control, the T/C [2] was 91 % of control and the T/C [3] was 100 % of control.
For `O=C(NCCCBr)c1csc(-c2csc(CCNC(=O)C(F)(F)F)n2)n1`, the T/C (dose: 6.25 mg/kg/injection, schedule: Q01DX005 (ip), vehicle: saline with Tween-80) was 89 % of control, the T/C (dose: 12.5 mg/kg/injection, schedule: Q01DX005 (ip), vehicle: saline with Tween-80) was 104 % of control and the T/C (dose: 25.0 mg/kg/injection, schedule: Q01DX005 (ip), vehicle: saline with Tween-80) was 95 % of control. The T/C [7] was 97 % of control, the T/C [8] was 90 % of control and the T/C [9] was 87 % of control.
`COC(=O)C1=C2Nc3ccccc3C23CCN2C(O)C4(CC5CC67CCOC6CCN6CCC8(c9cccc(OC)c9N(C4)C58O)C67)C4OCCC4(C1)C23` (stereo unspecified) was tested, and the T/C (dose: 3.12 mg/kg/injection, schedule: Q01DX005 (ip), vehicle: Klucel (hydroxypropylcellulose) (HPC)) was 96 % of control, the T/C (dose: 6.25 mg/kg/injection, schedule: Q01DX005 (ip), vehicle: Klucel (hydroxypropylcellulose) (HPC)) was 99 % of control and the T/C (dose: 12.5 mg/kg/injection, schedule: Q01DX005 (ip), vehicle: Klucel (hydroxypropylcellulose) (HPC)) was 99 % of control. The T/C (dose: 25.0 mg/kg/injection, schedule: Q01DX005 (ip), vehicle: Klucel (hydroxypropylcellulose) (HPC)) was 87 % of control and 89 % of control.
For `C=C1CC1CC(N)C(=O)O` (stereo unspecified), the T/C (dose: 1.25 mg/kg/injection, schedule: Q01DX009 (ip), vehicle: saline) was 108 % of control, the T/C (dose: 2.5 mg/kg/injection, schedule: Q01DX009 (ip), vehicle: saline) was 96 % of control and the T/C (dose: 5.0 mg/kg/injection, schedule: Q01DX009 (ip), vehicle: saline) was 100 % of control.
